Data published in patent publication US7901713B2, “Inhibition of COX-2 and/or 5-LOX activity by fractions isolated or derived from hops” (Metaproteomics, LLC, priority 2001, dated 2011).

Columns and labels:
[1] = clinical trials; cited from earlier work
RAW 264.7 cells = assay: Antioxidant activity, DCFH-DA oxidative stress model (H2O2 + LPS) in RAW 264.7 cells; format: cell-based, murine; details: Mus musculus, RAW264.7; 1000 μM H2O2 + 1 μg/mL LPS; highest concentration tested 50 μg/mL; parenthetic 95% confidence limits
Jurkat cells = assay: Antioxidant activity, DCFH-DA oxidative stress model (H2O2 + LPS) in Jurkat cells; format: cell-based; details: Homo sapiens, 1000 μM H2O2 + 1 μg/mL LPS, highest concentration tested 50 μg/mL, parenthetic 95% confidence limits
Protocol: Chemicals and reagents—Bacterial lipopolysaccharide (LPS; B E. coli 055:B5) was from Sigma (St. […] (Eugene, Oreg.); DCFH-DA was dissolved in dimethyl sulfoxide (DMSO) as a stock solution and kept frozen at −20° C. […] Positive control compounds included caffeic acid and Trolox obtained from Sigma (St. Louis, Mo.) and were of the highest purity commercially available. […] Unless otherwise noted, all standard reagents were obtained from Sigma and were the purest commercially available. […] Excess DCFH-DA was removed by centrifuging the cells for 10 minutes and resuspending them in the original growth medium. Cells were plated in microtiter wells at a concentration of approximately 10^6 cells per well. […] Fluorescence for each well was captured, digitized and stored on a computer using Cytofluor (Version 4.0). Measurements of fluorescence were made every ten minutes for 60 minutes. The change in DCF fluorescence is presented relative to the LPS-stimulated Jurkat cells alone; […] […] Antioxidant activity of the test materials—Oxidative stress was measured in cells using DCFH-DA in a microtiter plate assay as previously described [Wang, H. and Joseph, J. A. (1999) Quantifying cellular oxidative stress by dichlorofluorescein assay using microplate reader. […] Thus, the assay can be used to quantify overall oxidative stress in cells. […] Cm is determined from the x-intercept of the median-effect plot. […]

| SMILES | reduction of primary and secondary incidence of myocardial infarction and other CVDs [1] | IC50 (RAW 264.7 cells) | IC50 (Jurkat cells) |
| --- | --- | --- | --- |
| CC(=O)Oc1ccccc1C(=O)O [Aspirin, acetylsalicylic acid] | approximately 25% |  |  |
| O=C(O)/C=C/c1ccc(O)c(O)c1 [Caffeic acid, caffeic acid] |  | 3.3 µg/mL | 3.2 µg/mL |
| Cc1c(C)c2c(c(C)c1O)CCC(C)(C(=O)O)O2 (stereo not shown) [Trolox] |  |  | 5.4 µg/mL |
